Reference: ChEMBL document CHEMBL5705903, “A DNA Hypomethylation Signature Predicts Antitumor Activity of LSD1 Inhibitors in SCLC” (Cancer Cell, 2015)
Active and inactive are the calls of the source. No cut-off for these calls is given here.

Key:
[1] = Cmax in mouse blood at 5 mg/kg, po by HPLC/MS/MS analysis; assay type: ADME, organism-based
[2] = AUC (0 to last) in mouse tumor at 5 mg/kg, po by HPLC/MS/MS analysis; assay type: ADME, organism-based, Neoplasm
[3] = Tmax in mouse tumor at 5 mg/kg, po by HPLC/MS/MS analysis; assay type: ADME, organism-based, Neoplasm
NCI-H1417 = assay: Effect on caspase-3 level in human NCI-H1417 cells upto 1000 nM measured after 10 days by Western blot analysis; assay type: functional, cell-based; settings: time 10.0 day
[4] = Effect on cleaved PARP level in human NCI-H1417 cells assessed as relative expression at 10 nM measured after 7 days by Western blot analysis (reference value: 0.10); assay type: functional; settings: time 7 day
[5] = Effect on cleaved PARP level in human NCI-H526 cells assessed as relative expression at 100 nM measured after 10 days by Western blot analysis (reference value: 0.81); assay type: functional; settings: time 10 day
[6] = Effect on cleaved PARP level in human NCI-H526 cells assessed as relative expression at 1000 nM measured after 10 days by Western blot analysis (reference value: 0.81); assay type: functional; settings: time 10 day
[7] = Effect on cleaved PARP level in human NCI-H526 cells assessed as relative expression at 1000 nM measured after 14 days by Western blot analysis (reference value: 0.66); assay type: functional; settings: time 14 day
[8] = Effect on cleaved PARP level in human NCI-H526 cells assessed as fold change at 100 nM measured after 7 days by Western blot analysis (reference value: 1.00); assay type: functional; settings: time 7 day
[9] = Effect on cleaved PARP level in human NCI-H526 cells assessed as fold change at 100 nM measured after 10 days by Western blot analysis (reference value: 1.00); assay type: functional; settings: time 10 day
[10] = Effect on cleaved PARP level in human NCI-H526 cells assessed as fold change at 1000 nM measured after 14 days by Western blot analysis (reference value: 1.00); assay type: functional; settings: time 14 day
[11] = Effect on cleaved PARP level in human NCI-H524 cells assessed as relative expression at 1000 nM measured after 7 days by Western blot analysis (reference value: 0.63); assay type: functional; settings: time 7 day
[12] = Effect on cleaved PARP level in human NCI-H524 cells assessed as relative expression at 1000 nM measured after 14 days by Western blot analysis (reference value: […]); assay type: functional; settings: time 14 day
[13] = Effect on cleaved PARP level in human NCI-H524 cells assessed as fold change at 1000 nM measured after 7 days by Western blot analysis (reference value: 1.00); assay type: functional; settings: time 7 day
[14] = Effect on cleaved PARP level in human NCI-H524 cells assessed as fold change at 1000 nM measured after 10 days by Western blot analysis (reference value: 1.00); assay type: functional; settings: time 10 day
[15] = Effect on cleaved PARP level in human COLO-668 cells assessed as relative expression at 1000 nM measured after 14 days by Western blot analysis (reference value: 3.50); assay type: functional; settings: time 14 day
[16] = Effect on cleaved PARP level in human COLO-668 cells assessed as fold change at 100 nM measured after 7 days by Western blot analysis (reference value: 1.00); assay type: functional; settings: time 7 day
[17] = Effect on cleaved PARP level in human NCI-H1694 cells assessed as relative expression at 1000 nM measured after 10 days by Western blot analysis (reference value: .31); assay type: functional; settings: time 10 day
[18] = Effect on cleaved PARP level in human NCI-H1694 cells assessed as fold change at 10 nM measured after 14 days by Western blot analysis (reference value: 1.00); assay type: functional; settings: time 14 day
[19] = Effect on cleaved PARP level in human NCI-H1694 cells assessed as fold change at 1000 nM measured after 14 days by Western blot analysis (reference value: 1.00); assay type: functional; settings: time 14 day
[20] = Effect on cleaved PARP level in human NCI-H69 cells assessed as relative expression at 10 nM measured after 10 days by Western blot analysis (reference value: 0.03); assay type: functional; settings: time 10 day
[21] = Effect on cleaved PARP level in human NCI-H69 cells assessed as relative expression at 10 nM measured after 14 days by Western blot analysis (reference value: 0.03); assay type: functional; settings: time 14 day
[22] = Effect on cleaved PARP level in human NCI-H889 cells assessed as relative expression at 10 nM measured after 7 days by Western blot analysis (reference value: 0.34); assay type: functional; settings: time 7 day
[23] = Effect on cleaved PARP level in human NCI-H889 cells assessed as relative expression at 10 nM measured after 10 days by Western blot analysis (reference value: 0.33); assay type: functional; settings: time 10 day
[24] = Effect on cleaved PARP level in human NCI-H889 cells assessed as relative expression at 100 nM measured after 10 days by Western blot analysis (reference value: 0.33); assay type: functional; settings: time 10 day
[25] = Effect on cleaved PARP level in human NCI-H889 cells assessed as relative expression at 10 nM measured after 14 days by Western blot analysis (reference value: 0.94); assay type: functional; settings: time 14 day
[26] = Effect on cleaved PARP level in human NCI-H889 cells assessed as relative expression at 1000 nM measured after 14 days by Western blot analysis (reference value: 0.94); assay type: functional; settings: time 14 day
[27] = Effect on cleaved PARP level in human NCI-H889 cells assessed as fold change at 1000 nM measured after 10 days by Western blot analysis (reference value: 1.00); assay type: functional; settings: time 10 day
[28] = Toxicity in rat assessed as suppression of neutrophil in bone marrow measured for 28 days; assay type: cell-based; settings: 672 h, time 28 day
[29] = Toxicity in dog assessed as effect on hemodynamics measured for 28 days; design: species or system Canis lupus familiaris; settings: in vivo, 672 h, time 28 day
SHP77 = assay: Antitumor activity against human SHP77 cells xenografted in nude mouse assessed as mean tumor volume at […] mg/kg, po administered daily measured twice weekly (reference value: 2193 +/- 293 mm3); assay type: functional; settings: 1.25 mg/kg
NCI-H526 [30] = assay: Effect on NCAM gene expression in human NCI-H526 cells at 1 uM measured after 4 days by qRT-PCR analysis; assay type: functional, cell-based; settings: time 4.0 day
NCI-H146 = assay: Effect on NCAM gene expression in human NCI-H146 cells at 1 uM measured after 4 days by qRT-PCR analysis; assay type: functional, cell-based; settings: time 4.0 day
COLO-668 = assay: Effect on SYP gene expression in human COLO-668 cells at 1 uM measured after 4 days by qRT-PCR analysis; assay type: functional, cell-based; settings: time 4.0 day
NCI-H446 = assay: Effect on SYP gene expression in human NCI-H446 cells at 1 uM measured after 4 days by qRT-PCR analysis; assay type: functional, cell-based; settings: time 4.0 day
NCI-H526 [31] = assay: Effect on global H3K4me1 level in human NCI-H526 cells at 10 to 1000 nM measured after 24 hrs by Western blot analysis; assay type: functional, cell-based; settings: dose 10-1000 nM
NCI-H526 [32] = assay: Effect on genomic redistribution of LSD1 to new sites in human NCI-H526 cells at 1 uM; assay type: functional, cell-based
[33] = biological target: Lysine-specific histone demethylase 1A (Homo sapiens, UniProt O60341); settings: NCI-H526, dose 1-10000 nM, time 1-7 day
Description: Inhibition of LSD1 in human NCI-H526 cells assessed as change in IGFBP2 gene expression treated for 1 to 7 days by qRT-PCR analysis

Question: Which Cmax [1] does the source give for O=C(O)c1ccc(CN2CCC(CN[C@@H]3C[C@H]3c3ccccc3)CC2)cc1 [GSK2879552] here?
Answer: 720 ng/mL

Question: And the AUC(0-t) [2]?
Answer: 2320 ng·h/mL

Question: What about the Tmax [3] of the same molecule?
Answer: 30 min

Question: What about the Activity (NCI-H1417) of the same molecule?
Answer: inactive

Question: What about the Activity [4] of the same molecule?
Answer: 0.16

Question: And the Activity [5]?
Answer: 0.94

Question: And the Activity [6]?
Answer: 1.15

Question: And the Activity [7]?
Answer: 0.9

Question: And the “fold change (FC)” value [8]?
Answer: 1.2

Question: And the “fold change (FC)” value [9]?
Answer: 1.16

Question: What about the “fold change (FC)” value [10] of the same molecule?
Answer: 1.37

Question: And the Activity [11]?
Answer: 1.12

Question: What about the Activity [12] of the same molecule?
Answer: 1.17

Question: What about the “fold change (FC)” value [13] of the same molecule?
Answer: 1.77

Question: And the “fold change (FC)” value [14]?
Answer: 0.83

Question: What about the Activity [15] of the same molecule?
Answer: 1.02

Question: And the “fold change (FC)” value [16]?
Answer: 1.06

Question: What about the Activity [17] of the same molecule?
Answer: 0.22

Question: What about the “fold change (FC)” value [18] of the same molecule?
Answer: 0.85

Question: What about the “fold change (FC)” value [19] of the same molecule?
Answer: 0.84

Question: What about the Activity [20] of the same molecule?
Answer: 0.06

Question: What about the Activity [21] of the same molecule?
Answer: 0.05

Question: And the Activity [22]?
Answer: 0.03

Question: And the Activity [23]?
Answer: 0.55

Question: What about the Activity [24] of the same molecule?
Answer: 0.74

Question: What about the Activity [25] of the same molecule?
Answer: 1.73

Question: And the Activity [26]?
Answer: 2.65

Question: What about the “fold change (FC)” value [27] of the same molecule?
Answer: 2.77

Question: And the Activity [28]?
Answer: Toxic

Question: What about the Activity [29] of the same molecule?
Answer: Toxic

Question: And the Activity (SHP77)?
Answer: 1845 mm3

Question: And the Activity (NCI-H526 [30])?
Answer: inactive

Question: What about the Activity (NCI-H146) of the same molecule?
Answer: inactive

Question: And the Activity (COLO-668)?
Answer: inactive

Question: And the Activity (NCI-H446)?
Answer: inactive

Question: And the Activity (NCI-H526 [31])?
Answer: inactive

Question: What about the Activity (NCI-H526 [32]) of the same molecule?
Answer: inactive

Question: And the inhibition [33]?
Answer: Dose-Dependent Effect
